50 compounds from patent US10703764B2, “Benzopiperazine compositions as BET bromodomain inhibitors” (FORMA Therapeutics, Inc., priority 2013, dated 2020) can be followed below.

One assay has as its target T1, BRD4 BD2 (Homo sapiens, UniProt O60885).
T1 construct: made in house
Nature of the assay: AlphaScreen binding assay, BRD4 Bromodomain 2. In a few lines:
(§1)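 An AlphaScreen competition format was used with His-BRD4 BD1 or BD2 and biotin-H4 K5/8/12/16-acetyl peptide, each at matched final levels of 50 nM (BD1) or 100 nM (BD2). Incubation in HEPES/NaCl buffer with 0.1% BSA and 0.01% Triton X-100 ran ≥1 h before IC50 determination.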

Another assay addresses T2, BRD4 BD1 (Homo sapiens, UniProt O60885).
T2 construct: made in house
Description: AlphaScreen binding assay, BRD4 Bromodomain 1. Summed up: as §1
Background: Alpha assays give light when donor and acceptor beads are brought close together.

Take `CC(=O)N1c2ccccc2N(Cc2ccccc2C)C[C@@H]1C` [Example I-896]: the 50% inhibitory concentration (IC50) at BRD4 BD2 is > 500 nM; on BRD4 BD1 it was > 10000 nM.
As to `CC(=O)N1c2ccc(-c3ccc(S(C)(=O)=O)cc3)cc2N(C(=O)c2ccc(OC(F)(F)F)cc2)C[C@@H]1C` [Example I-879], the IC50 was > 500 nM on BRD4 BD2 and > 10000 nM on BRD4 BD1.
For the compound `CC(=O)N1c2ccc(-c3cnn(CC4CCS(=O)(=O)CC4)c3)cc2N(C(=O)C2CC2)C[C@@H]1C` [Example I-684], the figures for the IC50 on BRD4 BD2 and on BRD4 BD1 were 50 to 500 nM and 100 to 1000 nM, respectively.
Consider `CC(=O)N1c2ccc(-c3cnn(CC(C)(C)O)c3)cc2N(C(=O)C2CC2)C[C@@H]1C` [Example I-343], for which the IC50 was in the range of 50 to 500 nM on BRD4 BD2 and 1000 to 10000 nM at BRD4 BD1.
For the compound `CC(=O)N1c2ccc(-c3cnn(CCC#N)c3)cc2N(C(=O)Oc2cccnc2)C[C@@H]1C` [Example I-1288], the IC50 on BRD4 BD2 lay in the range of 50 to 500 nM; on BRD4 BD1 it was 1000 to 10000 nM.
In the case of `CC(=O)N1c2ccc(-c3c[nH]nc3C(F)(F)F)cc2N(C(=O)OC(C)C)CC1C` (stereo not shown) [Example I-335], the values for the IC50 on BRD4 BD2 and on BRD4 BD1 were > 500 nM and 1000 to 10000 nM, respectively.
In the case of `CC(=O)N1c2ccccc2N(C(=O)c2ccc3cc[nH]c3c2)CC1C` (stereo not shown) [Example I-760], the IC50 is > 500 nM at BRD4 BD2 and > 10000 nM on BRD4 BD1.
Consider `CC(=O)N1c2ccccc2N(Cc2cc(C(F)(F)F)cc(C(F)(F)F)c2)C[C@@H]1C` [Example I-900], for which the results for the IC50 on BRD4 BD2 and on BRD4 BD1 were > 500 nM and > 10000 nM, respectively.
Consider `CC(=O)N1c2ccc(-c3cnn(C4COC4)c3)cc2N(C(=O)[C@H]2CC2(Cl)Cl)C[C@@H]1C` (single isomer, unassigned) [Example I-113], for which the IC50 at BRD4 BD2 was > 500 nM; on BRD4 BD1, > 10000 nM.
As to `CC(=O)N1c2ccccc2N(C(=O)CCN2CCCCCC2=O)C[C@@H]1C` [Example I-765], the IC50 is > 500 nM on BRD4 BD2 and > 10000 nM at BRD4 BD1.
On to `C[C@H]1CN(C(=O)c2ccco2)c2cc(-c3ccc(S(C)(=O)=O)cc3)ccc2N1C(=O)CO` [Example I-367], for which the IC50 is > 500 nM on BRD4 BD2 and > 10000 nM at BRD4 BD1.
For `COC(=O)N1c2ccc(-c3cnn(CC(C)(C)O)c3)cc2N(C(=O)Oc2ccccn2)C[C@@H]1C` [Example I-1321] the same measures were 50 to 500 nM and 1000 to 10000 nM.
Turning to `CC(=O)N1c2ccccc2N(S(=O)(=O)c2ccccc2C#N)C[C@@H]1C` [Example I-943], the IC50 is > 500 nM on BRD4 BD2 and > 10000 nM at BRD4 BD1.
The like results for `CC(=O)N1c2ccc(-c3ccc(N(C)S(C)(=O)=O)cc3)cc2N(C(=O)c2ccco2)C[C@@H]1C` [Example I-492] were, in that order, < 50 nM and 100 to 1000 nM.
Take `CC(=O)N1c2ccc(-c3cccc(C#N)c3)cc2N(C(=O)c2ccco2)C[C@@H]1C` [Example I-812]: the concentration for half-maximal inhibition (IC50) was < 50 nM at BRD4 BD2 and 1000 to 10000 nM at BRD4 BD1.
The like results for `CC(=O)N1c2ccc(N(C)Cc3ccccc3)cc2N(C(=O)c2ccco2)C[C@@H]1C` [Example I-990] were, in that order, 50 to 500 nM and 1000 to 10000 nM.
In the case of `CC(=O)N1c2ccccc2N(C(=O)Cn2cnc3ccccc32)C[C@@H]1C` [Example I-766], the values for the half-inhibitory concentration (IC50) on BRD4 BD2 and at BRD4 BD1 were > 500 nM and > 10000 nM, respectively.
For `CC(=O)N1c2ccc(-c3cn(C)nn3)cc2N(C(=O)C2CC2)C[C@@H]1C` [Example I-453] the same measures were 50 to 500 nM and 1000 to 10000 nM.
Take `COC(=O)N1c2ccc(-c3ccc(S(C)(=O)=O)cc3)cc2N(C(=O)Oc2ccccn2)C[C@@H]1C` [Example I-1315]: the results for the IC50 at BRD4 BD2 and on BRD4 BD1 were 50 to 500 nM and 1000 to 10000 nM, respectively.
As for `CC(=O)N1c2ccccc2N(C(=O)c2cc(C)n(C)n2)C[C@@H]1C` [Example I-755], the figures for the IC50 on BRD4 BD2 and at BRD4 BD1 were > 500 nM and > 10000 nM, respectively.
For the compound `CC(=O)N1c2ccccc2N(C(=O)c2csc(C(F)(F)F)n2)C[C@@H]1C` [Example I-761], the IC50 at BRD4 BD2 was > 500 nM; at BRD4 BD1, > 10000 nM.
As for `CC(=O)N1c2ccc(-c3cnn(-c4nc5ccccc5o4)c3)cc2N(c2nc3ccccc3o2)C[C@@H]1C` [Example I-56, (S)-1-(4-(benzo[d]oxazol-2-yl)-6-(1-(benzo[d]oxazol-2-yl)-1H-pyrazol-4-yl)-2-methyl-3,4-dihydroquinoxalin-1(2H)-yl)ethanone], the values for the IC50 on BRD4 BD2 and on BRD4 BD1 were > 500 nM and > 10000 nM, respectively.
`CC(=O)N1c2ccc(-c3cnn(CCC(F)(F)F)c3)cc2N(C(=O)OC(C)C)C[C@@H]1C` [Example I-142, (S)-isopropyl 4-acetyl-3-methyl-7-(1-(3,3,3-trifluoropropyl)-1H-pyrazol-4-yl)-3,4-dihydroquinoxaline-1(2H)-carboxylate]: the IC50 on BRD4 BD2 lay within 50 to 500 nM; on BRD4 BD1, 1000 to 10000 nM.
`CC(=O)N1c2ccc(-c3ccncc3)cc2N(C(=O)c2ccco2)C[C@@H]1C` [Example I-820]: the half-maximal inhibitory concentration (IC50) at BRD4 BD2 is < 50 nM; at BRD4 BD1, 1000 to 10000 nM.
Regarding `CC(=O)N1c2ccccc2N(Cc2ccc(Cl)c(F)c2)C[C@@H]1C` [Example I-898], the figures for the IC50 at BRD4 BD2 and at BRD4 BD1 were > 500 nM and > 10000 nM, respectively.
Turning to `CC(=O)N1c2ccc(-c3cnn(C4CC4)c3)cc2N(C(=O)Oc2cc(F)ccc2C)C[C@@H]1C` [Example I-1200], the IC50 on BRD4 BD2 lay in the range of 50 to 500 nM; at BRD4 BD1, 1000 to 10000 nM.
In the case of `COC(=O)N1c2ccc(-c3cnn(CC(=O)O)c3)cc2N(C(=O)OC(C)C)C[C@@H]1C` [Example I-341], the 50% inhibitory concentration (IC50) on BRD4 BD2 was 50 to 500 nM; at BRD4 BD1, 1000 to 10000 nM.
Turning to `CC(=O)N1c2ccccc2N(C(=O)c2cc(C)on2)C[C@@H]1C` [Example I-722], the IC50 is > 500 nM at BRD4 BD2 and > 10000 nM at BRD4 BD1.
Turning to `CC(=O)N1c2ccccc2N(C(=O)c2cc3ccccn3n2)C[C@@H]1C` [Example I-771], the IC50 is > 500 nM on BRD4 BD2 and > 10000 nM on BRD4 BD1.
The like results for `CC(=O)N1c2ccccc2N(C(=O)c2cc3ccccc3[nH]2)CC1C` (stereo not shown) [Example I-730] were, in that order, > 500 nM and > 10000 nM.
Turning to `CC(=O)N1c2ccc(-c3ccc(S(C)(=O)=O)cc3)nc2N(C(=O)C2CC2)C[C@@H]1C` [Example I-301], the IC50 on BRD4 BD2 was > 500 nM; at BRD4 BD1, 1000 to 10000 nM.
With `CC(=O)N1c2ccccc2N(C(=O)c2cc3ccccc3s2)C[C@@H]1C` [Example I-746], the IC50 on BRD4 BD2 was > 500 nM; at BRD4 BD1, > 10000 nM.
For `CC(=O)N1c2ccc(-c3ccc(-n4cccn4)c(F)c3)cc2N(C(=O)c2ccco2)C[C@@H]1C` [Example I-814] the same measures were < 50 nM and 1000 to 10000 nM.
For `C[C@H]1CN(C(=O)C2CC2)c2cc(-c3cnc(N)cn3)ccc2N1C(=O)C1CC1` [Example I-442] the same measures were 50 to 500 nM and 1000 to 10000 nM.
Regarding `CC(=O)N1c2ccccc2N(C(=O)CC2CCOCC2)C[C@@H]1C` [Example I-706], the half-maximal inhibitory concentration (IC50) was > 500 nM at BRD4 BD2 and > 10000 nM on BRD4 BD1.
In the case of `CC(=O)N1c2ccccc2N(Cc2cccnc2)C[C@@H]1C` [Example I-924], the IC50 was > 500 nM on BRD4 BD2 and > 10000 nM at BRD4 BD1.
As for `CC(=O)N1c2ccc(-c3cccc4c3OCC4)cc2N(C(=O)c2ccco2)C[C@@H]1C` [Example I-386], the IC50 on BRD4 BD2 fell in the range of 50 to 500 nM; on BRD4 BD1, 1000 to 10000 nM.
As for `COC(=O)N1c2ccc(-c3ccc(N4CCCS4(=O)=O)cc3)cc2N(C(=O)Oc2ccccn2)C[C@@H]1C` [Example I-1325], the IC50 on BRD4 BD2 is 50 to 500 nM; on BRD4 BD1 it was 1000 to 10000 nM.
Take `CC(=O)N1c2ccc(-c3cnn(CCC(=O)O)c3)cc2N(C(=O)C2CC2)C[C@@H]1C` [Example I-136, (S)-3-(4-(1-acetyl-4-(cyclopropanecarbonyl)-2-methyl-1,2,3,4-tetrahydroquinoxalin-6-yl)-1H-pyrazol-1-yl)propanoic acid]: the values for the IC50 on BRD4 BD2 and on BRD4 BD1 were 50 to 500 nM and 1000 to 10000 nM, respectively.
Take `CC(=O)N1c2ccc(-c3ccc(S(C)(=O)=O)cc3)cc2N(C(=O)c2oc3ccccc3c2-c2ccccc2)C[C@@H]1C` [Example I-790]: the IC50 at BRD4 BD2 was > 500 nM; on BRD4 BD1, > 10000 nM.
Take `CC(=O)N1c2ccccc2N(C(=O)c2cnn3c2OCCC3)C[C@@H]1C` [Example I-773]: the IC50 at BRD4 BD2 is > 500 nM; at BRD4 BD1, > 10000 nM.
Take `CC(=O)N1c2ccccc2N(CC2CCN(C(C)C)CC2)C[C@@H]1C` [Example I-929]: the results for the IC50 at BRD4 BD2 and at BRD4 BD1 were > 500 nM and > 10000 nM, respectively.
Regarding `CC(=O)N1c2ccc(-c3cnn(C4COC4)c3)cc2N(C(=O)C2CCC2)C[C@@H]1C` [Example I-11, (S)-1-(4-(cyclobutanecarbonyl)-2-methyl-6-(1-(oxetan-3-yl)-1H-pyrazol-4-yl)-3,4-dihydroquinoxalin-1(2H)-yl)ethanone], the figures for the IC50 on BRD4 BD2 and at BRD4 BD1 were 50 to 500 nM and 1000 to 10000 nM, respectively.
For `CC(=O)N1c2ccc(-c3ccc4[nH]c(=O)[nH]c4c3)cc2N(C(=O)c2ccco2)CC1C` (stereo not shown) [Example I-394], the IC50 on BRD4 BD2 is < 50 nM; at BRD4 BD1 it was 100 to 1000 nM.
With `CCNC(=O)Cn1cc(-c2ccc3c(c2)N(C(=O)C2CC2)CC(C)N3C(C)=O)cn1` (stereo not shown) [Example I-681], the values for the IC50 at BRD4 BD2 and at BRD4 BD1 were 50 to 500 nM and 1000 to 10000 nM, respectively.
Turning to `CC(=O)N1c2ccc(-c3ccc(-c4ccccc4)cc3)cc2N(C(=O)COc2ccccc2)C[C@@H]1C` [Example I-797], the IC50 on BRD4 BD2 is > 500 nM; on BRD4 BD1, > 10000 nM.
On to `CCOC(=O)N1C[C@H](C)N(C(=O)OC)c2ccc(-c3cnn(C4CC4)c3)cc21` [Example I-380], for which the IC50 at BRD4 BD2 is > 500 nM; on BRD4 BD1, 100 to 1000 nM.
Regarding `CC(=O)N1c2ccc(-c3cc(C(F)(F)F)nn3C)cc2N(C(=O)c2ccco2)C[C@@H]1C` [Example I-851], the IC50 is > 500 nM on BRD4 BD2 and > 10000 nM at BRD4 BD1.
On to `CC(=O)N1c2ccccc2N(C(=O)c2ccc(Oc3ccccc3)cc2)C[C@@H]1C` [Example I-742], for which the IC50 on BRD4 BD2 was > 500 nM; on BRD4 BD1 it was > 10000 nM.
Turning to `COc1ccc(S(=O)(=O)N2C[C@H](C)N(C(C)=O)c3ccccc32)cc1` [Example I-936], the values for the IC50 at BRD4 BD2 and on BRD4 BD1 were > 500 nM and > 10000 nM, respectively.

Usually IC50 stands for the concentration that gives 50% inhibition.
